Measured values taken from patent publication US10988477B2 (Merck Patent GmbH, priority 2018, dated 2021).

Biological target: GCN2 kinase (Homo sapiens, UniProt Q9P2K8)
Test: GCN2 enzyme inhibition assay (Transcreener ADP2 fluorescence polarization)
Type: biochemical
Conditions: 280 μM ATP
Procedure: Compounds were screened for their ability to inhibit GCN2 kinase activity using a Transcreener® ADP^2 fluorescence polarization assay that detects ADP levels (BellBrook Labs, WI). Assays were carried out in a buffer consisting of 25 mM Tris-HCl (pH 7.5), 50 mM NaCl, 10 mM MgCl2 and 1 mM DTT. Final substrate concentrations were 280 μM ATP and 200 μM peptidic substrate ([…]-OH [(RS)7], Bachem, Switzerland). Assays were carried out at 25° C. in the presence of a (typical) final concentration of 4 nM GCN2 kinase. An assay buffer containing GCN2 kinase and (RS)7 was prepared. 4.7 μL of this stock solution was placed per well of a black, low volume, 384-well microtitre plate (e.g. catalogue number 3676, Corning Inc., NY). To this was added […] of DMSO containing serial dilutions of the test compound (typical final concentrations of test compound were 0 to 8 μM). The plate was incubated for 10 minutes at 25° C. prior to the addition of 4.7 μL of ATP stock buffer to initiate the enzyme reaction. The reaction was allowed to proceed for 1 hour at 25° C., prior to the addition of 10 μL detection buffer (consisting of appropriate concentrations of ADP^2 antibody and ADP Alexa633 tracer in 1× stop and detect buffer as supplied by BellBrook Labs). […] Percentage inhibition of enzyme activity was then calculated at each compound dose. IC50 and Ki(app) (using known assay and kinetic parameters) values were calculated from percentage inhibition data using a non-linear, tight-binding algorithm. All data analysis was undertaken using the Screener® software package (Genedata, Switzerland).

[1] = compounds of Formula II, 4 nM GCN2 kinase
[2] = Enzyme activity for compounds of Formula IV, Ki(app), 25° C.

GCN2 kinase, sequence (Q9P2K8 whole entry): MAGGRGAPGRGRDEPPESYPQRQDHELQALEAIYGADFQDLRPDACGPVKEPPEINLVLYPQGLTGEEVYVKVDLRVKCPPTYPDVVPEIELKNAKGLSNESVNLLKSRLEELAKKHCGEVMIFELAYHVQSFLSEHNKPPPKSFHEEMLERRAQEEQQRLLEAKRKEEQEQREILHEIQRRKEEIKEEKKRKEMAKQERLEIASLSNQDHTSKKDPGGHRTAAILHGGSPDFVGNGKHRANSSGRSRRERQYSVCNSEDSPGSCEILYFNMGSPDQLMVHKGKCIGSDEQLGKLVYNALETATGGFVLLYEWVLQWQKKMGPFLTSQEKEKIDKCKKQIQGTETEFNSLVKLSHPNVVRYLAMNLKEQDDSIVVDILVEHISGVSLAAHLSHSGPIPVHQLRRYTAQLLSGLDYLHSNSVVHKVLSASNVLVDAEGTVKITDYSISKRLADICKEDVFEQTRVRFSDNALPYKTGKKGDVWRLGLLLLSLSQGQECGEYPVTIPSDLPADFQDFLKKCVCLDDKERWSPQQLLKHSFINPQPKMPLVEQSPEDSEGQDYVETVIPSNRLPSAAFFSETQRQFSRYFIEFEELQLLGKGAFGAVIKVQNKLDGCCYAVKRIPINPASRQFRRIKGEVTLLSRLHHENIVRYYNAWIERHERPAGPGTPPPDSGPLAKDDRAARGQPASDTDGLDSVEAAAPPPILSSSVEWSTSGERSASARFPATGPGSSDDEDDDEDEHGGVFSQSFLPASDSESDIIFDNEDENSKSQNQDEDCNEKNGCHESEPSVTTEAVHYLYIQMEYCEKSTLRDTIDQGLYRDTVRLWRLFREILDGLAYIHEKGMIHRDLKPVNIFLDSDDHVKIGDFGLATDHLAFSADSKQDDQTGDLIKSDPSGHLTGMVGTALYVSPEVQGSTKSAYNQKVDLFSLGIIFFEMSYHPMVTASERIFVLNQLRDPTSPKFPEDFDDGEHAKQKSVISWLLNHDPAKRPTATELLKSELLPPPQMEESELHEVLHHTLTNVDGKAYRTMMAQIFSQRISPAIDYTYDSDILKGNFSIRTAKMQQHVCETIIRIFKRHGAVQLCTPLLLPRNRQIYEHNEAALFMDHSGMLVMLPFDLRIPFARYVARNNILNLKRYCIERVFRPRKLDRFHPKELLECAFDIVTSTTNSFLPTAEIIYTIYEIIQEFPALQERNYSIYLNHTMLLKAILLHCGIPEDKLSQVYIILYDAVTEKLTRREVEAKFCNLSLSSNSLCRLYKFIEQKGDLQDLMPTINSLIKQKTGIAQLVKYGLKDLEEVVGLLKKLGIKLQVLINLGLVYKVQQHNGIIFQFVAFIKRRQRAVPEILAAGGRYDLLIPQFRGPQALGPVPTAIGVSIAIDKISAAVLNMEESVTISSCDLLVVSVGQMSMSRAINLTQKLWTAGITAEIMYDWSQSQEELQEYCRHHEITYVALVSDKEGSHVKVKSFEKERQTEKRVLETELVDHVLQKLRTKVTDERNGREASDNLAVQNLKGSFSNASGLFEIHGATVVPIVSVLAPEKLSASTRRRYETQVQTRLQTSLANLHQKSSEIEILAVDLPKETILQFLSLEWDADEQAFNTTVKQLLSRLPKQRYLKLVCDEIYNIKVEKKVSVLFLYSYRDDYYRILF

SMILES | Ki [1] | Ki [2] | further results
FC(F)c1ccc2ncc(-c3ccnc(N4CCCNCC4)c3)n2n1 | 10 to 1000 nM | – | –
CS(=O)(=O)NCC1CC(C#N)CN(c2cc(-c3cnc4ccc(C(F)F)nn34)ncn2)C1 (centres unmarked) [listing 1 of 3 here] | 10 to 1000 nM | – | –
CS(=O)(=O)NCC1CC(C#N)CN(c2cc(-c3cnc4ccc(C(F)F)nn34)ncn2)C1 (centres unmarked) [listing 2 of 3 here] | 10 to 1000 nM | – | –
CS(=O)(=O)NCC1CC(C#N)CN(c2cc(-c3cnc4ccc(C(F)F)nn34)ncn2)C1 (centres unmarked) [listing 3 of 3 here] | < 10 nM | – | –
CP(C)(=O)C1CC(c2cn[nH]c2)CN(c2ccnc(-c3cnc4sc(C(F)(F)F)cn34)n2)C1 (racemic) [Compound V-6, 5-[4-[3-Dimethylphosphoryl-5-(1H-pyrazol-4-yl)-1-piperidyl]pyrimidin-2-yl]-2-(trifluoromethyl)imidazo[2,1-b]thiazole] | – | – | Ki (compounds of Formula V, 4 nM GCN2 kinase): 100 to 1000 nM
CC1C(CNS(C)(=O)=O)OCCN1c1cc(-c2cnc3ccc(C(F)F)nn23)ncn1 (single isomer, unassigned) [II-371, N-((4-(6-(6-(Difluoromethyl)imidazo[1,2-b]pyridazin-3-yl)pyrimidin-4-yl)-3-methylmorpholin-2-yl)methyl)methanesulfonamide] | < 10 nM | – | –
CC1C(CNS(C)(=O)=O)C(F)(F)C(C)CN1c1cc(-c2cnc3ccc(C(F)F)nn23)ncn1 (single isomer, unassigned) [II-467, N-((1-(6-(6-(Difluoromethyl)imidazo[1,2-b]pyridazin-3-yl)pyrimidin-4-yl)-4,4-difluoro-2,5-dimethylpiperidin-3-yl)methyl)methanesulfonamide] | < 10 nM | – | –
CC1C(CNS(C)(=O)=O)C(F)(F)C(C)CN1c1cc(-c2cnc3ccc(C(F)F)nn23)ncn1 (single isomer, unassigned) [II-468, N-((1-(6-(6-(Difluoromethyl)imidazo[1,2-b]pyridazin-3-yl)pyrimidin-4-yl)-4,4-difluoro-2,5-dimethylpiperidin-3-yl)methyl)methanesulfonamide] | 10 to 1000 nM | – | –
CS(=O)(=O)C1CCCN(c2cc(-c3cnc4ccc(C(F)F)nn34)ncn2)C1 (single isomer, unassigned) [II-530, 6-(Difluoromethyl)-3-(6-(3-(methylsulfonyl)piperidin-1-yl)pyrimidin-4-yl)imidazo[1,2-b]pyridazine] | 10 to 1000 nM | – | –
N#CCC1CN(c2cc(-c3cnc4ccc(C(F)F)nn34)ncn2)CCO1 (single isomer, unassigned) [II-564, 2-(4-(6-(6-(Difluoromethyl)imidazo[1,2-b]pyridazin-3-yl)pyrimidin-4-yl)morpholin-2-yl)acetonitrile] | 10 to 1000 nM | – | –
N#CCC1CN(c2cc(-c3cnc4ccc(C(F)F)nn34)ncn2)CCO1 (single isomer, unassigned) [II-565, 2-(4-(6-(6-(Difluoromethyl)imidazo[1,2-b]pyridazin-3-yl)pyrimidin-4-yl)morpholin-2-yl)acetonitrile] | 10 to 1000 nM | – | –
CC1C(N=S(C)(C)=O)CCCN1c1cc(-c2cnc3ccc(C(F)F)nn23)ncn1 (single isomer, unassigned) [II-581, ((1-(6-(6-(Difluoromethyl)imidazo[1,2-b]pyridazin-3-yl)pyrimidin-4-yl)-2-methylpiperidin-3-yl)imino)dimethyl-λ^6-sulfanone] | 10 to 1000 nM | – | –
CC1C(N=S(C)(C)=O)CCCN1c1cc(-c2cnc3ccc(C(F)F)nn23)ncn1 (single isomer, unassigned) [II-582, ((1-(6-(6-(Difluoromethyl)imidazo[1,2-b]pyridazin-3-yl)pyrimidin-4-yl)-2-methylpiperidin-3-yl)imino)dimethyl-λ^6-sulfanone] | > 1000 nM | – | –
C[C@@H]1C[C@H](CO)[C@H](C)N(c2cc(-c3cnc4ccc(C(F)F)nn34)ncn2)C1 (single isomer, unassigned) [II-585] | < 10 nM | – | –
CC1CC(CO)C(C)N(c2cc(-c3cnc4ccc(C(F)F)nn34)ncn2)C1 (single isomer, unassigned) [II-586, (1-(6-(6-(Difluoromethyl)imidazo[1,2-b]pyridazin-3-yl)pyrimidin-4-yl)-2,5-dimethylpiperidin-3-yl)methanol] | 10 to 1000 nM | – | –

Continued, in another order:

Ki [1] | Ki [2] | SMILES | further results
– | 10 to 100 nM | CC1CC(C(N)=O)CN(c2ccnc(-c3cnc4cnc(C(F)F)cn34)n2)C1 (mixture of isomers) [IV-107, 1-(2-(6-(Difluoromethyl)imidazo[1,2-a]pyrazin-3-yl)pyrimidin-4-yl)-5-methylpiperidine-3-carboxamide] | –
– | < 10 nM | C[C@H]1[C@@H](c2cn[nH]c2)OCCN1c1ccnc(-c2cnc3cnc(Cl)cn23)n1 (racemic) [IV-235, Cis-4-(2-(6-Chloroimidazo[1,2-a]pyrazin-3-yl)pyrimidin-4-yl)-3-methyl-2-(1H-pyrazol-4-yl)morpholine] | –
– | 10 to 100 nM | C[C@H]1[C@H](c2cn[nH]c2)OCCN1c1ccnc(-c2cnc3cnc(Cl)cn23)n1 (racemic) [IV-236, Trans-4-(2-(6-Chloroimidazo[1,2-a]pyrazin-3-yl)pyrimidin-4-yl)-3-methyl-2-(1H-pyrazol-4-yl)morpholine] | –
– | 10 to 100 nM | C[C@H]1[C@H](c2cn[nH]c2)OCCN1c1ccnc(-c2cnc3cnc(C#N)cn23)n1 (racemic) [IV-281, Trans-3-(4-(3-Methyl-2-(1H-pyrazol-4-yl)morpholino)pyrimidin-2-yl)imidazo[1,2-a]pyrazine-6-carbonitrile] | –
– | < 10 nM | C[C@H]1[C@@H](c2cn[nH]c2)OCCN1c1ccnc(-c2cnc3cnc(Br)cn23)n1 (racemic) [IV-306, Cis-4-(2-(6-Bromoimidazo[1,2-a]pyrazin-3-yl)pyrimidin-4-yl)-3-methyl-2-(1H-pyrazol-4-yl)morpholine] | –
– | 10 to 100 nM | C[C@H]1[C@H](c2cn[nH]c2)OCCN1c1ccnc(-c2cnc3cnc(Br)cn23)n1 (racemic) [IV-312, Trans-4-(2-(6-Bromoimidazo[1,2-a]pyrazin-3-yl)pyrimidin-4-yl)-3-methyl-2-(1H-pyrazol-4-yl)morpholine] | –
– | 100 to 1000 nM | C[C@H]1NCCN(c2ccnc(-c3cnc4cnc(Br)cn34)n2)[C@H]1c1cn[nH]c1 (racemic) [IV-342, Cis-6-Bromo-3-(4-(3-methyl-2-(1H-pyrazol-4-yl)piperazin-1-yl)pyrimidin-2-yl)imidazo[1,2-a]pyrazine] | –
– | < 10 nM | C[C@H]1CN(c2ccnc(-c3cnc4cnc(C(F)(F)F)cn34)n2)C[C@@H](c2c[nH]cn2)O1 (racemic) [IV-380, Cis-2-(1H-Imidazol-4-yl)-6-methyl-4-(2-(6-(trifluoromethyl)imidazo[1,2-a]pyrazin-3-yl)pyrimidin-4-yl)morpholine] | –
– | 10 to 100 nM | C[C@@H]1CN(c2ccnc(-c3cnc4cnc(C(F)(F)F)cn34)n2)C[C@@H](c2c[nH]cn2)O1 (racemic) [IV-381, Trans-2-(1H-Imidazol-4-yl)-6-methyl-4-(2-(6-(trifluoromethyl)imidazo[1,2-a]pyrazin-3-yl)pyrimidin-4-yl)morpholine] | –
– | 10 to 100 nM | CS(C)(=O)=N[C@@H]1C[C@H](c2cn[nH]c2)CN(c2ccnc(-c3cnc4cnc(C(F)(F)F)cn34)n2)C1 (racemic) [IV-395] | –
– | < 10 nM | C[C@H]1[C@@H](C(N)=O)CCCN1c1ccnc(-c2cnc3cnc(C(F)(F)F)cn23)n1 (racemic) [IV-453, Cis-2-Methyl-1-(2-(6-(trifluoromethyl)imidazo[1,2-a]pyrazin-3-yl)pyrimidin-4-yl)piperidine-3-carboxamide] | –
– | 100 to 1000 nM | C[C@@H]1CN(c2ccnc(-c3cnc4cnc(C(F)(F)F)cn34)n2)C[C@H](c2ccnn2C)N1 (racemic) [IV-667, Cis-3-(4-(3-Methyl-5-(1-methyl-1H-pyrazol-5-yl)piperazin-1-yl)pyrimidin-2-yl)-6-(trifluoromethyl)imidazo[1,2-a]pyrazine] | –
– | 100 to 1000 nM | C[C@@H]1CN(c2ccnc(-c3cnc4cnc(C(F)(F)F)cn34)n2)C[C@H](c2cncn2C)N1 (racemic) [IV-672, Cis-3-(4-(3-Methyl-5-(1-methyl-1H-imidazol-5-yl)piperazin-1-yl)pyrimidin-2-yl)-6-(trifluoromethyl)imidazo[1,2-a]pyrazine] | –
– | 10 to 100 nM | C[C@H]1NCCN(c2ccnc(-c3cnc4cnc(C(F)(F)F)cn34)n2)[C@H]1c1cn[nH]c1 (relative stereo) [IV-208, Cis-3-(4-(3-Methyl-2-(1H-pyrazol-4-yl)piperazin-1-yl)pyrimidin-2-yl)-6-(trifluoromethyl)imidazo[1,2-a]pyrazine] | –
– | < 10 nM | CCN1CCN(c2ccnc(-c3cnc4cnc(Br)cn34)n2)[C@@H](C)[C@H]1c1cn[nH]c1 (relative stereo) [IV-390, Cis-6-Bromo-3-(4-(4-ethyl-2-methyl-3-(1H-pyrazol-4-yl)piperazin-1-yl)pyrimidin-2-yl)imidazo[1,2-a]pyrazine] | –
– | 100 to 1000 nM | C[C@@H]1[C@H](c2cn[nH]c2)N(c2ccnc(-c3cnc4cnc(Br)cn34)n2)CCN1C (relative stereo) [IV-393, Cis-6-Bromo-3-(4-(3,4-dimethyl-2-(1H-pyrazol-4-yl)piperazin-1-yl)pyrimidin-2-yl)imidazo[1,2-a]pyrazine] | –
– | 100 to 1000 nM | C[C@H]1NCCN(c2ccnc(-c3cnc4cnc(C5CC5)cn34)n2)[C@H]1c1cn[nH]c1 (relative stereo) [IV-412, Cis-6-Cyclopropyl-3-(4-(3-methyl-2-(1H-pyrazol-4-yl)piperazin-1-yl)pyrimidin-2-yl)imidazo[1,2-a]pyrazine] | –
